Measurements from patent US20110319495A1, “Pharmaceutical Composition for Hepatitis Treatment and Applications” (priority 2010, published 2011).

How the values were obtained:
HO-1 [1] = assay: HO-1 mRNA expression in HepG2 cells (real-time PCR); format: cell-based, human; details: lucidone 1, 5, 10 μg/ml or curcumin 10 μg/ml, with 100 mM alcohol, standardized to β-actin
Method: Trizol reagent (Invitrogen Life Technologies, Carlsbad, Calif., USA) is used to extract total RNA of cells. One step RT-PCR is used for reverse transcription of mRNA of HO-1 and β-actin into cDNA, then real time-PCR (Applied Biosystems) is applied to real-time expression of HO-1 and β-actin.
Said real-time PCR is used to detect PCR products by combining DNA and SYBR Green. The thermal cycle is: 3 m at 96° C.; 1 m at 96° C. in 40 cycles, 30 s at 50° C. and 90 s at 72° C.

HepG2 cells [2] = assay: Glutathione content in alcohol-treated HepG2 cells; format: cell-based, human; details: lucidone 1, 5, 10 μg/ml or curcumin 10 μg/ml, 1 h before 100 mM alcohol for 24 h
Method: A currently available GSH-96-well plate colorimetric GSH assay kit, Oxis International, Foster City, Calif., USA) is used to measure the content of glutathione (GSH). In brief, 40 μl chromogenic reagent dissolved in acid is added into 40 μl non-protein hepatocyte lysate, and added with 40 μl NaOH (30%), 40 μl color developer and buffer solution to form a mixed solution. Next, the mixed solution is shaken gently, and placed in room temperature for 10 m. Finally, a spectrometer (ELISA microplate reader, μQuant, Bio-Tek instruments, Inc., Winooski, Vt., USA) is used to detect the absorbance at wavelength 412 nm, and compared with a GSH absorbance curve of known concentration to judge the content of GSH. Similarly, the content of glutathione in the experimental mouseserum can be measured.

HO-1 [3] = assay: HO-1 protein expression in HepG2 cells (Western blotting); format: cell-based, human; details: lucidone 1, 5, 10 μg/ml or curcumin 10 μg/ml, with 100 mM alcohol
HepG2 cells [4] = assay: Lipid peroxidation degree (MDA) in alcohol-treated HepG2 cells; format: cell-based, human; details: lucidone 1, 5, 10 μg/ml or curcumin 10 μg/ml, 1 h before 100 mM alcohol for 24 h
HepG2 cells [5] = assay: Content of ALT and AST in culture solution of alcohol-treated HepG2 cells; format: cell-based, human; details: 1, 5, 10 μg/ml, 1 h before 100 mM alcohol for 24 h; dose-dependent; effect equivalent to curcumin 10 μg/ml
Method: (§1) A currently available test kit (Randox Laboratories, Antrim, UK) is applied to test the concentration of culture solution after cultivation of HepG2 cells as well as the concentration of ALT and AST in mouse serum. In brief, the experiment is designed to obtain the culture solution after cultivation of HepG2 cells and the serum of experimental mouse by the recommended test procedures.
(§2) The aforementioned HepG2 cells cultivated normally are grouped, and then separately cultivated 1 h together with 0, 1, 5, 10 μg/ml lucidone (0 μg/ml, negative control group) or 10 μg/ml curcumin (curcumin, a known antioxidation compound, taken as a positive control group), and then alcohol (100 mM) is added for 24 h cultivation to stimulate oxidation stress. The experiment groups and control groups are configured in Table 1:
(§3) The content of ALT, AST and tumor necrosis factor-α (TNF-α) in the tested culture solution of HepG2 cells is measured (refer to preferred embodiment 1 [test of ALT and AST concentration] and [measurement of tumor necrosis factor-α ]).

Nrf-2 and ARE = assay: Bonding activity of Nrf-2 and ARE in HepG2 cells (EMSA); format: cell-based, human; details: 1, 5, 10 μg/ml with 100 mM alcohol, dose-dependent
Nrf-2 = Nrf-2 translocation in HepG2 cells (Western blotting of cytoplasm and nuclear extracts); format: cell-based, human; details: 1, 5, 10 μg/ml with 100 mM alcohol
Method: The cytosolic extracts and nuclear extracts are prepared as per the known test procedures using the currently available test kit (protocol #78833 Nuclear and Cytoplasmic Extraction Reagent kit). And, the common protein assay reagent (Bio-Rad) is used to measure the concentration of protein.
Western blotting is implemented as per the known test procedures in the relevant field, of which said anti-body and enhanced chemiluminescene regents (ECL, Pierce) are used for immunoblotting, and then an imaging device (Viogene Biotek, Sunnyvale, Calif., USA) is used for observing the results.
The aforementioned HepG2 cells cultivated normally are grouped, and then separately cultivated 1 h together with 0, 1, 5, 10 μg/ml lucidone (0 μg/ml, negative control group) or 10 μg/ml curcumin (curcumin, a known antioxidation compound, taken as a positive control group), and then alcohol (100 mM) is added for 24 h cultivation to stimulate oxidation stress. […]
HO-1 is one of ARE-driven antioxidant genes. […] In this experiment, the content of Nrf-2 in cytoplasm and nuclear extracts of tested HepG2 cells, as well as the bonding activity of Nrf-2 and ARE is measured (refer to relevant experimental methods in preferred embodiment 1).
Said content refers to the color strength of the result from Western blotting calculated by typical software in the field.

tumor necrosis factor-α = assay: Content of TNF-α in culture solution of alcohol-treated HepG2 cells (ELISA); format: cell-based, human; details: 1, 5, 10 μg/ml, 1 h before 100 mM alcohol for 24 h; dose-dependent; effect equivalent to curcumin 10 μg/ml
Method: (§4) According to the principle of Griess reaction, nitrite accumulated from the supernatant liquid cultivated by cells and mouse serum is measured to obtain indirectly the generation of nitric oxide. The supernatant liquid cultivated by cells and tumor necrosis factor-α in the serum are measured using the currently available human TNF-αELISA kit. In brief, aforementioned HepG2 cells of […] are separately cultivated in 96-well plate, and then added with lucidone and alcohol to cultivate them for 24 h. Next, the culture solution is diluted by the work reagent of aforementioned kit by a percentage of 1:2. Then, every 100 μl diluted culture solution is subject to ELISA reaction as per the operating instruction of aforementioned kit, and then a spectrometer is used to detect the absorbance at wavelength 450 nm so as to judge the content of tumor necrosis factor-α; in the mouse experiment, the mouse serum is diluted properly and then the content of tumor necrosis factor-α is tested as per the operating instruction of aforementioned kit. […]
as §3

[6] = tested on: mouse suffered by hepatitis arising from alcohol; assay: Content of ALT, AST, nitric oxide and TNF-α in serum, mouse model of hepatitis arising from alcohol; format: in vivo; details: lucidone 100 mg/Kg/day i.p. 7 d, mean ± SD
Text: (§5) The experimental mouse is selected from 4-week male mouse of ICR family (25±5 g) in Charles River (Taipei, Taiwan). Prior to the experiment, the experimental mouse will be bred for at least 1 week in constant temperature lab conditions wherein unlimited feedstock and water are supplied. All animals shall be governed by the Guide for the Care and Use of Laboratory Animals and relevant animal protection acts of Taiwan, and approved by local ethics commissions. 80% alcohol or lucidone is applied to aforementioned experimental mouse (1 mL/Kg) by following methods: alcohol is applied orally, or by intra-peritoneal injection, or alcohol and lucidone are applied orally, or by intra-peritoneal injection.
as §1
According to the principle of Griess reaction, nitrite accumulated from the supernatant liquid cultivated by cells and mouse serum is measured to obtain indirectly the generation of nitric oxide. The supernatant liquid cultivated by cells and tumor necrosis factor-α in the serum are measured using the currently available human TNF-αELISA kit. In brief, aforementioned HepG2 cells of […] are separately cultivated in 96-well plate, and then added with lucidone and alcohol to cultivate them for 24 h. Next, the culture solution is diluted by the work reagent of aforementioned kit by a percentage of 1:2. Then, every 100 μl diluted culture solution is subject to ELISA reaction as per the operating instruction of aforementioned kit, and then a spectrometer is used to detect the absorbance at wavelength 450 nm so as to judge the content of tumor necrosis factor-α; in the mouse experiment, the mouse serum is diluted properly and then the content of tumor necrosis factor-α is tested as per the operating instruction of aforementioned kit.
(§6) The aforementioned mouse are grouped and then applied with lucidone for 7 d at a dose of 100 mg/Kg/day by means of intra-peritoneal injection, and at the 7th day, applied with lucidone and then applied with 80% alcohol orally or by intra-peritoneal injection at a dose of 1 ml/Kg, one time every 12 h with 3 doses; of which, the mouse of the control group is fed with 1% DMSO dissolved in saline solution.
Take out the serum of mouse suffered by hepatitis arising from alcohol as per aforementioned experimental design, and determine the content of ALT, AST, nitric oxide and TNF-α by the experimental methods in preferred embodiment 1.

reactive oxygen species = assay: Accumulation of reactive oxygen species in alcohol-treated HepG2 cells (DCF-DA); format: cell-based, human; details: 1, 5, 10 μg/ml, 1 h before 100 mM alcohol for 24 h; dose-dependent; effect equivalent to curcumin 10 μg/ml
Method: A currently available DCF-DA (dihydrodichloro-fluorescein diacetate; Sigma, USA) is used to monitor the accumulation of reactive oxygen species (ROS) in cells. In brief, the cells (1×10^7) are wetted by phosphate buffer solution, and then added into 10 μm DCF-DA for 4 h cultivation at 37° C., and then fluorescence spectrophotometer is used to measure the fluorescence (488 nm/530 nm).
as §2
The content of reactive oxygen species and nitric oxide in the tested culture solution of HepG2 cells is measured (refer to preferred embodiment 1 [Test of accumulation of reactive oxygen species in cells] and [Griess nitrite test]).
FIG. 3A depicts the content of reactive oxygen species of HepG2 cells in various groups, of which the fluorescence strength of DCF-DA indicates the content of reactive oxygen species. FIG. 3B depicts the generation of nitric oxide of HepG2 cells in various groups, of which nitrite generation indicates the generation of nitric oxide.

nitric oxide = assay: Griess nitrite test, nitric oxide generation in alcohol-treated HepG2 cells; format: cell-based, human; details: 1, 5, 10 μg/ml, 1 h before 100 mM alcohol for 24 h; dose-dependent; effect equivalent to curcumin 10 μg/ml
Method: as §4
The content of reactive oxygen species and nitric oxide in the tested culture solution of HepG2 cells is measured (refer to preferred embodiment 1 [Test of accumulation of reactive oxygen species in cells] and [Griess nitrite test]). […]

[7] = tested on: mouse suffered by hepatitis arising from alcohol; assay: Content of GSH and MDA in serum and tissue, mouse model of hepatitis arising from alcohol; format: in vivo; details: lucidone 100 mg/Kg/day i.p. 7 d, mean ± SD; for GSH in tissue / MDA in tissue: liver tissue
Text: as §5
A currently available lipid peroxidation test kit (Oxford Biomedical Research, Oxford, Mich., USA) is used to measure the degree of lipid peroxidation. In brief, the cells are lysed by 200 μl cell lysis buffer. Then, 140 μl cell lysate is mixed with 455 μl N-methyl-2-phenylindole dissolved in acetonitrile and 105 μl acid (HCL, 37%), and placed in 45° C. for 60 m. malondialdehyde (MDA) is a main product of polyunsaturated fatty acid lysed by peroxidation. In this experiment, N-methyl-2-phenylindole is used to generate stable chromophore through reaction with MDA, and the formation of MDA is measured under maximum absorbance wavelength 535 nm as an index of measuring lipid peroxidation. Similarly, the degree of lipid peroxidation in the serum of experimental mouse can be measured.
A currently available GSH-96-well plate colorimetric GSH assay kit, Oxis International, Foster City, Calif., USA) is used to measure the content of glutathione (GSH). In brief, 40 μl chromogenic reagent dissolved in acid is added into 40 μl non-protein hepatocyte lysate, and added with 40 μl NaOH (30%), 40 μl color developer and buffer solution to form a mixed solution. Next, the mixed solution is shaken gently, and placed in room temperature for 10 m. […] Similarly, the content of glutathione in the experimental mouseserum can be measured.
as §6
Take out the serum and liver tissue of mouse suffered by hepatitis arising from alcohol as per aforementioned experimental design, and measure GSH content and lipid peroxidation degree as per the experimental methods in preferred embodiment 1.

[8] = intra-peritoneal injection alcohol (80%, 1 ml/Kg, 3 doses every 12 h)
[9] = orally taking alcohol (80%, 1 ml/Kg, 3 doses every 12 h)
[10] = intra-peritoneal injection alcohol

Compound: COc1cc(/C=C/C(=O)CC(=O)/C=C/c2ccc(O)c(OC)c2)ccc1O [curcumin, reference compound]
- expression of HO-1 mRNA in the cells (HO-1 [1]): substantial increase
- decline of GSH concentration in the cells caused by alcohol (HepG2 cells [2]): can be avoided
- expression of HO-1 protein in the cells (HO-1 [3]): substantial increase
- lipid peroxidation in the cells caused by alcohol (HepG2 cells [4]): reduce greatly

Compound: COC1=CC(=O)C(=C(O)/C=C/c2ccccc2)C1=O [lucidone]
- expression of HO-1 mRNA in the cells (HO-1 [1]): substantial increase
- content of ALT in cell culture solution (HepG2 cells [5]): reduced the phenomenon of growing content
- content of AST in cell culture solution (HepG2 cells [5]): reduced the phenomenon of growing content
- bonding activity of Nrf-2 and ARE (Nrf-2 and ARE): improve significantly the bonding activity
- Nrf-2 translocation (Nrf-2 content in nucleus) (Nrf-2): facilitate Nrf-2 translocation
- content of TNF-α in cell culture solution (tumor necrosis factor-α): reduced the phenomenon of growing content
- ALT in serum [6, 8]: 103.0 ± 65.6 U/L
- AST in serum [6, 8]: 139.6 ± 12.2 U/L
- TNF-α in serum [6, 8]: 3.91 ± 0.28 ng/mL
- nitric oxide in serum [6, 8]: 102.3 ± 0.52 nM/mL
- ALT in serum [6, 9]: 875.4 ± 57.2 U/L
- AST in serum [6, 9]: 508.0 ± 31.7 U/L
- TNF-α in serum [6, 9]: 10.0 ± 0.28 ng/mL
- nitric oxide in serum [6, 9]: 370.6 ± 0.53 nM/mL
- generation of reactive oxygen species caused by alcohol (reactive oxygen species): reduced the generation
- generation of nitric oxide caused by alcohol (nitrite) (nitric oxide): reduced the generation
- decline of GSH concentration in the cells caused by alcohol (HepG2 cells [2]): can be avoided
- expression of HO-1 protein in the cells (HO-1 [3]): substantial increase
- lipid peroxidation in the cells caused by alcohol (HepG2 cells [4]): reduce greatly
- GSH in tissue [7, 10]: 173.9 ± 58.5 nmol/mg of protein
- MDA in tissue [7, 10]: 20.9 ± 0.71 nmol/mg of protein
- GSH in serum [7, 10]: 42.9 ± 1.8 nmol/mg of protein
- MDA in serum [7, 10]: 16.2 ± 0.77 nmol/mg of protein
- GSH in tissue ([7]; orally taking alcohol): 261.2 ± 11.1 nmol/mg of protein
- MDA in tissue ([7]; orally taking alcohol): 69.2 ± 0.67 nmol/mg of protein
- GSH in serum ([7]; orally taking alcohol): 30.5 ± 1.0 nmol/mg of protein
- MDA in serum ([7]; orally taking alcohol): 19.5 ± 0.41 nmol/mg of protein
